One block for each compound: values may come before it.
Experiments:
[1] = target: T1, MPO (Homo sapiens, UniProt P05164); test: SPECT-CT imaging of MPO/Matrigel implants with 111In tracer; assay type: in vivo, mouse; parameters: purchased BioDesign, Inc
T1 sequence (P05164 49-745): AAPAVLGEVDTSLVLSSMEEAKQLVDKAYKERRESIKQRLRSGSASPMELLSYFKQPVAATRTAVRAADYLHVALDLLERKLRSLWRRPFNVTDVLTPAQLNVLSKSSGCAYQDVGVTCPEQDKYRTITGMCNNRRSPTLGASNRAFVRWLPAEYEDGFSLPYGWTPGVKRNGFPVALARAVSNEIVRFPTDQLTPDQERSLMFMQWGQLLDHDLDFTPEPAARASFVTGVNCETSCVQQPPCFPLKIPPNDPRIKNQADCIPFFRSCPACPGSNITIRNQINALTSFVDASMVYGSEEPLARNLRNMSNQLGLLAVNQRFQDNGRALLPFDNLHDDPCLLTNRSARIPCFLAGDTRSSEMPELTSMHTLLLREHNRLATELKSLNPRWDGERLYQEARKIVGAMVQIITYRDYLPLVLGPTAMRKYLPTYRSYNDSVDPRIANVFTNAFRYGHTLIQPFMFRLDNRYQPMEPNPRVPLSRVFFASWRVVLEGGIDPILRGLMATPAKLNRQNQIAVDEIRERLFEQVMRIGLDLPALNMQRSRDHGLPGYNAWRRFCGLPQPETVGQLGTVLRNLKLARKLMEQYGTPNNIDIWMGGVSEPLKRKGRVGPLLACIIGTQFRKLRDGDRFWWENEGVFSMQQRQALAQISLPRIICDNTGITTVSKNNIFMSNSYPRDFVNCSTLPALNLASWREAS
Method: (§1) Ten-week old C57BL6 male mice were obtained from Jackson Laboratories. A total of 22 mice were used for the study. • 1. MPO/Matrigel imaging experiments: Matrigel™ (Beckton-Dickinson), a […] basement membrane matrix gel was used to immobilize human MPO and glucose oxidase (to supply H2O2 required for detecting MPO oxidative activity, Calbiochem). This was chosen to reflect deposits of human MPO in inflamed tissue in a mouse model. 400 μL of a mixture of Matrigel™ and MEM (Cambrex) was injected slowly into the thighs of each mouse one hour prior to imaging. The right thigh mixture also contained 15 U of MPO and 4 U of glucose oxidase (Calbiochem), while the left thigh mixture contained no enzyme and thus serves as an internal control. A total of 15 mice were used (3 mice each for 5-HT-DOTA(Gd), bis-5-HT-DTPA(Gd), bis-5-HT-DTPA-^111In, bis-tyramide-DTPA(Gd), and DTPA(Gd)). • 2. LPS/Matrigel experiments (n=3): This model was developed to induce endogeneous mouse MPO secretion and activation. 200 μL total volume Matrigel containing 10% heparin was injected slowly into the thighs of the mice 4 days prior to imaging. The right-sided mixture also contained E. coli lipopolysaccharide (LPS) at 10 μg/mL. One mouse was sacrificed for immunohistochemistry. • 3. Myositis experiments (n=4): LPS at 100 μg/mL in PBS was injected into each mouse intramuscularly in the right flank to produce myositis. The mice are imaged 24 hours after injection.
(§2) 80-100 μCi of ^111In-bis-5-HT-DTPA in 200 μL of saline was injected intravenously into three mice prepared in the same manner as in the MPO/Matrigel MR imaging experiments. The animals were imaged 3 hours after injection on a high resolution X-SPECT/CT system (Gamma Medica). Six hours after injection, the animals were sacrificed and biodistribution was determined in major organs. The % dose accumulated per gram of major organs was determined by using the 1480 Wizard gamma counter (Perkin-Elmer).

[2] = Biodistribution of 111In tracer; assay type: in vivo, mouse; details: mice, 6 h post injection
Method: as §2

[3] = target: T2, horseradish peroxidase (HRP) (Armoracia rusticana, UniProt P00433); test: HRP-mediated polymerization of DOTA(Gd) substrates: relaxivity change; assay type: biochemical; parameters: purchased Sigma
T2 sequence (P00433 31-338): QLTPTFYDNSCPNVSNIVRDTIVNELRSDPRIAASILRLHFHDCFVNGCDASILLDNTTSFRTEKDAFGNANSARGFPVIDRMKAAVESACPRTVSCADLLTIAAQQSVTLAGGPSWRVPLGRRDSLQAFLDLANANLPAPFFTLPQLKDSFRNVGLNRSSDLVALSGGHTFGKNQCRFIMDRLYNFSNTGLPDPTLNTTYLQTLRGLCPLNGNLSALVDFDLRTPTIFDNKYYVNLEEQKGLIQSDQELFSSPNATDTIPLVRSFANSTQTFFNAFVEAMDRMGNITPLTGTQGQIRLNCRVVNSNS
Method: (§3) Reactions with HRP and MPO were carried out at room temperature in the presence of 0.5-1 mM substrate dissolved in 0.5 ml PBS containing H2O2 (2 mM). Reaction was initiated by adding an aliquot containing the enzyme (either HRP or MPO) and vortexing. After at least a 30 min incubation period T1 was measured using inversion-recovery pulse sequence Bruker Minispec (Buker Analytics, North Bellirica Mass.) at 0.47 T (20 MHz). Size-exclusion HPLC of reaction products was performed on TSK G3000SWXL macroporous column (Supelco) eluted with 0.1 M triethylammonium acetate, pH 7.0 at 1 ml/min.
Standard 96-well plates were prepared and imaged on a 1.5 T whole body clinical General Electric Signa MRI scanner utilizing a standard 3 inch surface coil. Inversion recovery sequences were used to measure T1 relaxation and spin echo sequences were utilized to measure T2 relaxation. T2 weighted images were obtained with TR=5000 ms and TE=100 ms with a fast spin echo sequence. T1 weighted images were obtained with spin echo sequences with the following parameters: TR=100, 200, 350, or 500, TE=11. For the Matrigel™ experiments, a relatively T2 weighted image was obtained at TR=300 ms and TE=200 ms. Single-exponential models were used to obtain T1 and T2. […]

[4] = target: T2, horseradish peroxidase (HRP); test: Pseudo-first-order rate constants of HRP-mediated conversion (relaxation times over time, 0.47 T); assay type: biochemical, horseradish; parameters: purchased Sigma-Aldrich type XII (catalogue number not given); details: from T1 measurements, mean±SD
Method: Kinetics of the samples were observed by measuring T1 and T2 at 0.47 T and 40° C. of the samples over at least a 24 hour period. At different time points, 1 M of sodium azide (final concentration=0.17 M) was added to stop the enzyme mediated reaction. The resultant progress curve was fitted with an empirical mathematical model and analyzed according to the Guggenheim method to obtain the pseudo-first-order rate constants (Guggenheim E A. Philos. Mag. 1926; 2:538).
An important property of a suitable substrate for an enzyme is the kinetics of enzymatic reaction. To determine the utility of the paramagnetic complexes as suitable substrates for human myeloperoxidase (MPO), we measured the pseudo-first-order rate constant of these substrates in MPO, and compared to the same substrates' reactions in Horse Radish Peroxidase (HRP) by monitoring the changes in relaxation time over time. […] The results shown were obtained using T1 measurements. T2 measurements yielded nearly identical results. The results are presented as mean±SD. N/A=not applicable.

[5] = target: T3, human neutrophil MPO (Homo sapiens, UniProt P05164); test: MPO-mediated polymerization of DOTA(Gd) substrates: T1/T2 relaxivity change; assay type: biochemical; details: for relaxivity ratio: ˜2000 U of MPO activity
T3 construct: purchased BioDesign Inc
Method: as §3
Standard 96-well plates were prepared and imaged on a 1.5 T whole body clinical General Electric Signa MRI scanner utilizing a standard 3 inch surface coil. Inversion recovery sequences were used to measure T1 relaxation and spin echo sequences were utilized to measure T2 relaxation. T2 weighted images were obtained with TR=5000 ms and TE=100 ms with a fast spin echo sequence. T1 weighted images were obtained with spin echo sequences with the following parameters: TR=100, 200, 350, or 500, TE=11. For the Matrigel™ experiments, a relatively T2 weighted image was obtained at TR=300 ms and TE=200 ms. Single-exponential models were used to obtain T1 and T2. The relaxivities were computed by normalizing relaxation rates to the concentration of gadolinium in each sample, obtained by inductive coupled plasma (ICP) analysis performed by Galbraith Laboratories.
To determine the effect of myeloperoxidase on the substrates, we performed T1 and T2 relaxivity measurements in aqueous solutions, with and without MPO and hydrogen peroxide, at 0.47 T and 1.5 T (the results are summarized in FIGS. 3A and 3B for tyramide-DOTA(Gd) and FIGS. 4A and 4B for 5-HT-DOTA(Gd)). For reference, the two substrates were also reacted with HRP (solid symbols in FIGS. 3A and 3B and FIGS. 4A and 4B).

[6] = target: T4, MPO-I (Homo sapiens, UniProt P05164); details: cited from earlier work
T4 sequence (P05164 49-745): T1 sequence (P05164 49-745)

[7] = target: T5, human MPO embedded in Matrigel (Homo sapiens, UniProt P05164); test: MPO/Matrigel implant mouse model, T1-weighted MR imaging; assay type: in vivo; details: mice; right MPO/Matrigel vs left control; 1.5 T
T5 construct: purchased BioDesign, Inc
T5 sequence (P05164 49-745): T1 sequence (P05164 49-745)
Method: To evaluate the monomeric substrates in vivo, we devised a mouse model that harbored 400 μL of Matrigel basement membrane matrix gel mixed 1:1 by volume with a solution containing 15 U of human MPO and glucose oxidase (as a source of hydrogen peroxide) that was injected into the right flank of the mouse. The left flank was injected with the enzyme-free Matrigel mixture. We subsequently performed T1-weighted MR imaging after the intravenous injection of Gd-DTPA-diSer substrate at the dose of […].
The MR imaging experiments were performed on a 1.5 T GE Excite scanner and a 4.7 T Bruker Pharmascan scanner. For all MR imaging experiments, precontrast T2-(TR=2000, TE=100, ETL=8, NEX=4, fast spin echo sequence) and T1-weighted images (TR=500, TE=11, NEX=4, spin echo sequence) with fat saturation were initially performed to locate the gels or area of inflammation. The substrates (0.3 mmol/kg) were subsequently injected via the tail vein of the mouse. The mouse was immediately imaged after the injection of the contrast agent using multiple T1-weighted sequences with fat saturation for at least 3 hours.
as §1
For normalized signal intensity measured on T1-weighted images, mean±standard deviation (SD) values were calculated in regions of interest (ROI). Contrast-to-noise (CNR) ratios were computed for each ROI according to the formula

SMILES: O=C([O-])CN(CCN(CC(=O)[O-])CC(=O)NCCc1c[nH]c2ccc(O)cc12)CCN(CC(=O)[O-])CC(=O)NCCc1c[nH]c2ccc(O)cc12.[111In+3] [^111In-bis-5-HT-DTPA]
increase in the radioactivity of the right leg (with MPO) vs. the left leg (without MPO) ([1]; mice n=3, SPECT-CT 3 hours after injection): 2.3±0.3 fold
increase in count in the dissected gel with embedded MPO ([1]; mice, 6 h post injection): greater than 4 fold
uptake on the side containing MPO ([1]; mouse, SPECT/CT 3 hours after the injection): significant increased uptake
injected dose excreted [2]: 90%
organs holding most of the remaining dose [2]: spleen, bowel, kidney, and liver
organs holding most of the remaining dose ([2]; listed as 111In-chelated monomeric substrate): spleen, kidneys, bowel, and liver

relaxivity ratio ([3]; 0.47 T): about 2.3 times
relaxivity ratio ([3]; 1.5 T): about 2.1 times
Pseudo first-order rate constant [4]: 0.0095 s⁻¹
relaxivity ratio ([5]; 0.47 T): 1.7 times
relaxivity ratio ([5]; 1.5 T): 1.4 times
T1 shortening relative to the HRP result ([5]; 2000 U MPO): 70-75%
MPO needed to reach >90% of the T1 shortening seen with HRP ([5]; assuming a linear response to the amount of MPO): > 3000 U
increase in relaxivity of polymer product ([5]; equivalent amount of MPO, clinical imaging strength): 1.4 times
SMILES: CC(C(=O)NCC(=O)NCCc1ccc(O)cc1)N1CCN(CC(=O)[O-])CCN(CC(=O)[O-])CCN(CC(=O)[O-])CC1.[Gd+3] (stereo not shown) [tyramide-DOTA(Gd), Glycylmethyl DOTA(Gd) Tyramide]

reaction with MPO [5]: does not react with MPO
SMILES: CC(C(=O)NCC(=O)NCCc1ccc(O)c(O)c1)N1CCN(CC(=O)[O-])CCN(CC(=O)[O-])CCN(CC(=O)[O-])CC1.[Gd+3] (stereo not shown) [hydroxytyramide-DOTA(Gd), Glycylmethyl DOTA(Gd) Hydroxytyramide]
relaxivity increase from reaction with MPO [5]: did not result in a substantially significant relaxivity increase

SMILES: NCCc1c[nH]c2ccc(O)cc12 [serotonin, 3-(2-aminoethyl)-5-hydroxyindole]
MPO-mediated oxidation in excess chloride ([6]; about 5,000 times higher excess of chloride): could not be completely stopped
kinetic constant of the MPO-I reaction relative to the reaction with chloride ([6]; neutral pH): about 10 times

SMILES: O=C(O)CN(CCN(CC(=O)O)CC(=O)NCCc1c[nH]c2ccc(O)cc12)CCN(CC(=O)O)CC(=O)NCCc1c[nH]c2ccc(O)cc12 [Compound 2]
enhancement of MPO implant compared with control implant [7]: significantly increased enhancement
